# Data: article PMC10967270, “Intrapulmonary and Systemic Pharmacokinetics of Colistin Following Nebulization of Low-Dose Colistimethate Sodium in Patients with Ventilator-Associated Pneumonia Caused by Carbapenem-Resistant Acinetobacter baumannii” (Antibiotics, 2024)
# Positions of bridges follow the written chain, without caps; N, C: chain ends. Non-standard residues stand in square brackets, D forms with d. Residues, ends and D or L forms follow the SMILES beside them. *: point of attachment. X1 = CC[C@H](C)CCCCC(=O)*; Dab = NCC[C@H](N)C(=O)O
# Tests used:
# Assay type in all cases: in vivo, human
# [1] = Individual steady-state fAUC of colistin in ELF and plasma by clinical and microbiological outcome; conditions: for fAUC, median (IQR): steady state over 24 h
# Protocol: We investigated whether the fAUC values of individual patients were associated with clinical or microbiological outcomes (Table 3). Using individual estimates of CL derived from the final PK model, we calculated the steady-state fAUC for each patient when a total of 3.75 MIU (=300 mg CMS = 112.5 mg CBA) was administered at 6 h intervals four times a day, using the formula AUC = DOSE/CL. The unbound fraction of colistin was assumed to be 10% [25] in the ELF based on the study by Gkoufa et al. and 34% in the plasma based on the study by Mohamed et al.. Gkoufa et al. presented concentration–time profiles of colistin predicted through simulations, assuming unbound fractions in the ELF of 0.01, 0.015, 0.05, and 0.099 [25]. From these, we approximated the unbound fraction at 0.1 by rounding 0.099. Meanwhile, Mohamed et al. determined the unbound fraction in plasma using equilibrium dialysis and reported a measured median (range) colistin unbound fraction of 34% (26–41%).
# The PK/PD index for colistin is the area under the free colistin concentration-–time curve at steady state over 24 h divided by the pathogen minimum inhibitory concentration (fAUC/MIC). Since we were unable to obtain MIC values for A. baumannii, we evaluated the relationship between the PK and PD of colistin by comparing the fAUC of each patient in accordance with their clinical outcomes and microbiological outcomes. AUC was calculated by dividing the daily dose by patient, which was the individual post hoc Bayesian estimate of the developed PK model. […] The Wilcoxon rank-sum test was used to assess the relationships between fAUC and clinical outcomes, and the Kruskal–Wallis test was used to investigate the association between fAUC and microbiological outcomes. Additionally, leveraging typical PK parameter values from final models of ELF and plasma samples, we simulated concentration-time profiles of colistin for nebulization doses of 25 mg, 50 mg, 75 mg, 100 mg, and 125 mg in patients. Subsequently, we generated concentration–time plots and computed fAUC values.
# [2] = Population PK model of colistin in plasma (NONMEM, one-compartment, Weibull absorption)
# From the text: (§1) The time courses of colistin concentrations in ELF and plasma were best described using one-compartment models with a Weibull absorption process. The following structural PK model described by two differential equations was applied:(1) dA1/dt=−WB×A1 (2) WB=KAMAX×1−e^−RA×time^GAM (3) dA2/dt=WB×A1−CL/V×A2 where A1 and A2 represent the amounts of colistin in ELF and plasma, and WB denotes the Weibull absorption function with parameters KAMMA, RA, and GAM. KAMMA determines the function’s maximum value, often representing the maximum rate of absorption or event occurrence. RA, the shape parameter, controls the rate of change over time, influencing the distribution’s slope and how quickly it increases or decreases. GAM adjusts the time variable’s exponent, controlling the rate of growth or decline over time, thereby affecting the distribution’s asymmetry and indicating the curve’s speed in reaching its peak or declining. CL and V are the total clearance and volume of distribution for colistin, respectively. The estimated CL and V in Table 2 were expressed as CL/fm and V/fm, respectively, where fm represents the fraction of CMS metabolized to colistin, a value that cannot be estimated from our study data. No significant covariates influencing the PK parameters were identified. The estimated PK parameters for the final PK models are presented in Table 2, while individual fit plots for colistin in ELF and plasma can be found in Figure 2 and Figure 3, respectively. Diagnostic goodness-of-fit plots for the final PK model of colistin in ELF and plasma are shown in Supplementary Materials Figures S1 and S2, respectively. […] With the observed 10th, 50th, and 90th percentiles mostly within the 95% confidence intervals of the simulated percentiles, the final PK models effectively explained the observed concentrations and had good predictive performance.
# (§2) A population PK analysis of colistin in ELF and plasma was conducted using NONMEM 7.5.0 (ICON Clinical Research LLC, North Wales, PA, USA). The analysis used first-order conditional estimation with interaction (FOCEI) to estimate both observed fixed and unexplained random effect parameters. The FOCEI allows the inter-individual variability (IIV) in the PK parameters to interact with the residual unexplained variability (RUV) in the observed concentrations. The RUV arises from factors such as within-subject variability, assay error, and potential misspecification of the model. ADVAN1 TRANS2 and ADVAN3 TRANS4 from the NONMEM PK model library were used to construct the single- and two-compartment models, respectively. Except for drug inhalation, all PK processes were assumed to follow first-order kinetics. Various absorption models, including zero-order, first-order, Weibull, and transit absorption models, were investigated to describe the absorption processes of colistin.
# (§3) The representation of each PK parameter was given by θi = θ × exp(ηi), where θ stands for the typical value of the PK parameter, θi represents an individual PK parameter, and ηi is a random variable associated with IIV. It was assumed that IIV follows a normal distribution with a mean of 0 and a variance of ω^2. For RUV, which was assumed to be normally distributed with a mean of 0 and a variance of σ^2; additive, proportional, and combined additive and proportional error models were investigated.
# (§4) Models were assessed and chosen based on NONMEM objective function values (OFVs), the precision of parameter estimates (relative standard errors), the shrinkage of IIV, and diagnostic goodness-of-fit plots. In the log-likelihood ratio test, if the decrease in OFV (ΔOFV) is greater than 3.84 for models with one additional degree of freedom or greater than 5.99 for models with two additional degrees of freedom, it is considered statistically significant at p < 0.05, indicating an improvement in the model. […]
# [3] = Population PK model of colistin in epithelial lining fluid (NONMEM, one-compartment, Weibull absorption); conditions: ELF
# From the text: as §1, §2, §3, §4
smiles,measurement,setting,value
CC[C@H](C)CCCCC(=O)N[C@@H](CCN)C(=O)N[C@H](C(=O)N[C@@H](CCN)C(=O)N[C@H]1CCNC(=O)[C@H]([C@@H](C)O)NC(=O)[C@H](CCN)NC(=O)[C@H](CCN)NC(=O)[C@H](CC(C)C)NC(=O)[C@@H](CC(C)C)NC(=O)[C@H](CCN)NC1=O)[C@@H](C)O [colistin] (X1-[Dab]T[Dab][Dab][Dab][dL]L[Dab][Dab]T; lactam 4-C),"fAUC, median (IQR)","[1]; ELF, clinical outcome cured/improved, 16 patients, 3.75 MIU CMS/day at 6 h intervals, AUC = dose/CL, bioavailability 9%, unbound fraction 10%",36.7 (18.2–62.9) mg/L·h
same,"fAUC, median (IQR)","[1]; ELF, clinical outcome failed, 4 patients, 3.75 MIU CMS/day, unbound fraction 10%",31.7 (15.4–47.8) mg/L·h
same,"fAUC, median (IQR)","[1]; ELF, microbiological outcome eradicated, 8 patients, 3.75 MIU CMS/day",61.2 (12.5–111) mg/L·h
same,"fAUC, median (IQR)","[1]; ELF, microbiological outcome indeterminate, 2 patients, 3.75 MIU CMS/day",33.9 (30.0–37.9) mg/L·h
same,"fAUC, median (IQR)","[1]; ELF, microbiological outcome persistent, 10 patients, 3.75 MIU CMS/day",28.5 (17.7–50.5) mg/L·h
same,fAUC in ELF relative to plasma,"[1]; cured/improved group, mean values",approximately 27.2 times
same,fAUC in ELF relative to plasma,"[1]; cured/improved group, median values",approximately 26.2 times
same,fAUC in ELF relative to plasma,"[1]; eradicated group, mean values",39.8 times
same,fAUC in ELF relative to plasma,"[1]; eradicated group, median values",26.0 times
same,fAUC in ELF relative to plasma,"[1]; failed group, mean values",about 14.0 times
same,fAUC in ELF relative to plasma,"[1]; failed group, median values",15.9 times
same,fAUC in ELF relative to plasma,"[1]; indeterminate group, mean values",6 times
same,fAUC in ELF relative to plasma,"[1]; indeterminate group, median values",6 times
same,"ELF fAUC, cured/improved relative to treatment failure",[1]; mean values,more than 2.25 times
same,"ELF fAUC, eradicated relative to indeterminate group",[1]; mean values,3.24 times
same,"ELF fAUC, eradicated relative to persistent group",[1]; mean values,3.48 times
same,"ELF fAUC, cured/improved relative to treatment failure",[1]; median values,1.16 times
same,"ELF fAUC, eradicated relative to indeterminate group",[1]; median values,1.80 times
same,"ELF fAUC, eradicated relative to persistent group",[1]; median values,2.15 times
same,fAUC in ELF relative to plasma,"[1]; persistent group, mean values",18.8 times
same,fAUC in ELF relative to plasma,"[1]; persistent group, median values",18.2 times
same,"fAUC, median (IQR)","[1]; plasma, clinical outcome cured/improved, 16 patients, 3.75 MIU CMS/day, unbound fraction 34%",1.40 (0.752–3.74) mg/L·h
same,"fAUC, median (IQR)","[1]; plasma, clinical outcome failed, 4 patients, 3.75 MIU CMS/day, unbound fraction 34%",2.00 (1.87–2.38) mg/L·h
same,"fAUC, median (IQR)","[1]; plasma, microbiological outcome eradicated, 8 patients, 3.75 MIU CMS/day",2.36 (0.645–4.11) mg/L·h
same,"fAUC, median (IQR)","[1]; plasma, microbiological outcome indeterminate, 2 patients, 3.75 MIU CMS/day",5.96 (5.00–6.91) mg/L·h
same,"fAUC, median (IQR)","[1]; plasma, microbiological outcome persistent, 10 patients, 3.75 MIU CMS/day",1.56 (1.00–2.05) mg/L·h
same,"CL/fm, bootstrap median (95% CI)",[2]; 2000 bootstrap samples,26.1 (6.66–67) mL/min
same,"KAMAX, bootstrap median (95% CI)",[2]; 2000 bootstrap samples,1.20 (0.912–1.59)
same,"V/fm, bootstrap median (95% CI)",[2]; 2000 bootstrap samples,67.2 (46.6–93) L
same,"KAMAX (maximum rate of absorption), estimate",[2]; Weibull absorption,1.20
same,"CL/fm, estimate",[2]; final PK model,26.3 mL/min
same,"V/fm, estimate",[2]; final PK model,67.4 L
same,"CL/fm, bootstrap median (95% CI)",[3]; 2000 bootstrap samples,0.529 (0.352–0.77) mL/min
same,"KAMAX, bootstrap median (95% CI)",[3]; 2000 bootstrap samples,0.533 (0.335–0.973)
same,"V/fm, bootstrap median (95% CI)",[3]; 2000 bootstrap samples,24.3 (11.0–46.7) mL
same,"KAMAX (maximum rate of absorption), estimate",[3]; Weibull absorption,0.531
same,"CL/fm, estimate",[3]; final PK model,0.541 mL/min
same,"V/fm, estimate",[3]; final PK model,23.0 mL
